Experimental data reported in patent US12571052B2, “Immunomodulatory RNA” (THE TRUSTEES OF THE UNIVERSITY OF PENNSYLVANIA, priority 2017, dated 2026).
“Also recorded” adds a separate entry of the source.

T1: recombinant RIG-I (Homo sapiens, UniProt O95786)
T1 sequence (O95786 1-925): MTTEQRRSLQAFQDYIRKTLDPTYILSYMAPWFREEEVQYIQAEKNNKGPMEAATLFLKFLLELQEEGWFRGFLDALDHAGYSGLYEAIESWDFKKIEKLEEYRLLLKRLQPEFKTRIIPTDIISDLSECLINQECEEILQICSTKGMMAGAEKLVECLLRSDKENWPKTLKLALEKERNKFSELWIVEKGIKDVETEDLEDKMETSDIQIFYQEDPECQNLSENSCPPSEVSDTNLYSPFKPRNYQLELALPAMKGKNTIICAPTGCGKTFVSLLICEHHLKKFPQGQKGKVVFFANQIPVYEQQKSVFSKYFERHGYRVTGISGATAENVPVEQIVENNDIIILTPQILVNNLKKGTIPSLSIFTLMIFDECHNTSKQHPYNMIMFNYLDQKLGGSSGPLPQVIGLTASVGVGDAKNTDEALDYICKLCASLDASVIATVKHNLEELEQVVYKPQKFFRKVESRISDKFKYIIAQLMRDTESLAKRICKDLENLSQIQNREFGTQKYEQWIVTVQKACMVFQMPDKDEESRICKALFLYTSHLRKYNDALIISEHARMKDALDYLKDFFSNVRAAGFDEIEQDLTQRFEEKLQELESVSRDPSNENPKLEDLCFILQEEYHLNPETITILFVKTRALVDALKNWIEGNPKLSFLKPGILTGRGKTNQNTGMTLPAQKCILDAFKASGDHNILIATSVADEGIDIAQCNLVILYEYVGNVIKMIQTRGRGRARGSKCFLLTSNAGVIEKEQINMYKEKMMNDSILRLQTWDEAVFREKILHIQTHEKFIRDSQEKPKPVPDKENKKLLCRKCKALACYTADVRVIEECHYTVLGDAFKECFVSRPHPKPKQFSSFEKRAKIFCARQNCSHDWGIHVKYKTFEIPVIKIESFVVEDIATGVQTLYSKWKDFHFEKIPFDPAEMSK


Experiments:
[1] = system: B16-F10 tumor cells; assay: B16-F10/MEF co-implantation, tumor growth and survival under checkpoint blockade; format: in vivo, C57BL/6 mice; conditions: BLZ945 every 2 days for 2 weeks, anti-CTLA4 or anti-CTLA4 and anti-PD1, tumors with unshielded 7SL
Method: Wild type (WT) C57BL/6 mice were injected with 5×10^4 B16-F10 tumor cells subcutaneously in the flank with 5×10^4 MYC activated mouse embryonic fibroblasts (MEFs) or MYC activated MEFs co-expressing SRP9/14. MYC activation is inducible with 4-OHT and results in the secretion of exosomes containing unshielded 7SL1 RNA, while co-expression of SRP9/14 ensures the 7SL1 RNA remains relatively shielded, allowing measurement of the stimulatory capacity specifically of the unshielded form (Nabet B Y, et al. Cell. 2017; 170 (2): 352-366.e13). Mice were subsequently treated with the anti-CTLA-4 or anti-PD-1 antibody (or not), and then tumor growth was monitored by caliper. Endpoint criterion was considered a tumor measurement of 1.5 cm in any direction.
Tumors were implanted as described in FIGS. 25A-25B and treated with CSF1R inhibitor BLZ945 (Novartis) every 2 days for 2 weeks starting at day 0 to prevent M2 polarization of infiltrating myeloid cells. Mice were additionally treated with anti-CTLA4 (FIG. 27A) or anti-CTLA4 and anti-PD1 (FIGS. 27B and 27C) on days 5, 8, and 11. Tumor growth was monitored by caliper.

[2] = system: B16-F10 tumor cells; assay: B16-F10/MEF co-implantation, tumor immune populations by flow cytometry; format: in vivo, C57BL/6 mice
Method: Mice were implanted with tumors as described FIGS. 25A-25B. Tumors were harvested 13 days later and assessed for infiltration of macrophages or myeloid derived suppressor cells (MDSCs). Macrophages are considered Lin−, F4/80+, and CD11b+ cells. MDSCs are considered Lin−, F4/80−, CD11c−, CD11b+, and Ly6C+ cells. Tumors were treated with anti-CTLA4 blocking antibody (FIG. 26D) as described in FIGS. 25A and 25B, and tumors were harvested at d15 to measure M2 polarization of macrophages as marked by CD206.
Furthermore, mice were implanted with the same tumors and subsequently treated with the CSF1R inhibitor BLZ945. Polarization of macrophages and frequency of CD103+DCs were tested.
In addition, mice were implanted with tumors and treated with anti-CTLA4+/−CSF1Ri BLZ945. Tumors were harvested 13 days later and immune populations were assessed using an unbiased clustering of flow cytometry data.
Mice were implanted with B16-F10 tumor cells mixed 1:1 with MEFs or MEFs co-expressing SRP9/14 (FIG. 35B). Tumors were harvested 2 weeks post-injection and analyzed for immune cell populations. Unshielded RN7SL1 increased the frequency of dendritic cells, the percentage of CD103+ dendritic cells, the percentage of CD69+CD8+ T cells, and the percentage of PD1+CD8+ T cells in tumors (FIG. 35C). […] Without wishing to be bound by theory, a CSF1R inhibitor blocks M2 polarization and may synergize with unshielded RN7SL1.

[3] = system: pancreatic ductal adenocarcinoma (PDA) tumor cells; assay: PDA/MEF co-injection, tumor growth under ICB therapy; format: in vivo, mice; conditions: BLZ945 with unshielded 7SL RNA, anti-CTLA4 and anti-PD1
Method: CSF1R inhibition in combination with unshielded 7SL RNA sensitizes PDA tumors to ICB therapy (FIGS. 28A-28B). 1×10^5 pancreatic ductal adenocarcinoma (PDA) tumor cells were co-injected with 1×10^5 MEFs (“myc-ER”) or MEFs co-expressing SRP9/14 (“myc-ER/SRP”) treated with 4OHT or EtOH. Mice were then treated with a combination of anti-CTLA4 and anti-PD1 antibodies (FIG. 28A) or a triple combination of anti-CTLA4, anti-PD1, and BLZ945 (FIG. 28B) using treatment schedules outlined in the study shown in FIGS. 27A-27C. Tumor growth was monitored by caliper.

[4] = biological target: T1, recombinant RIG-I; assay: RIG-I ATPase assay (ATP hydrolysis); format: biochemical
Method: RIG-I ATPase Assays. RIG-I ATPase assays were performed as previously described (Devarkar et al. (2016) Proc. Natl. Acad. Sci. 113, 596-601). In brief, increasing amounts of RNA (10-60 nM) were added to a constant quantity of RIG-I (5 nM) in the presence of 1 mM ATP. ATP hydrolysis was measured with the EnzChek Phosphate Assay Kit (ThermoFisher) after 60-90 minutes at 37° C. ATP hydrolysis was then measured by absorbance of 360 nm compared to background. A 19-mer 5′triphosphate dsRNA (Invivogen) and DVG396 were used as positive controls and a 19-mer 5′OH dsRNA (Invivogen) and an in vitro transcribed 300 bp ssRNA stretch of GAPDH (GAPDH300) were used as negative controls.

Row | Molecule | response to checkpoint blockade with CSF1R inhibition [1] | response to checkpoint blockade with CSF1R inhibition ([1]; listed as small molecule inhibitor of CSF1R) | activated CD4+ T cells in tumors ([2]; anti-CTLA4 +/- CSF1Ri, high unshielded 7SL, 13 days) | frequency of M2 macrophages in the tumor ([2]; high levels of unshielded 7SL RNA) | infiltration of cross-presenting CD103+ DCs ([2]; high levels of unshielded 7SL RNA, CSF1R inhibition) | sensitization of PDA tumors to ICB therapy [3] | ATP hydrolysis by recombinant RIG-I after addition of SRP9 ([4]; SRP9 added to DVG396 or unrelated 5'ppp or 5'OH control RNAs) | ATP hydrolysis by recombinant RIG-I after addition of SRP9 ([4]; SRP9 added to in vitro transcribed RN7SL1)
1 | CNC(=O)c1cc(Oc2ccc3nc(N[C@@H]4CCCC[C@H]4O)sc3c2)ccn1 [BLZ945] | allows tumors with high levels of unshielded 7SL to respond more robustly to checkpoint blockade; also recorded: enhanced the anti-tumor activity of an anti-PD1 antibody and an anti-CTLA-4 antibody | led to improved response in tumors with high levels of unshielded 7SL1 | markedly increased | decreased the frequency of M2 macrophages found in the tumor | improving the infiltration of cross-presenting CD103+DCs | sensitizes PDA tumors to anti-PD-1 and anti-CTLA-4 antibody therapies | – | –
2 | SRP9: Recombinant SRP9 protein, GST tag cleaved with TEV protease (protein, UniProt P49458 2-86, looked up) Signal recognition particle 9 …: PQYQTWEEFSRAAEKLYLADPMKARVVLKYRHSDGNLCVKVTDDLVCLVYKTDQAQDVKKIEKFHSQLMRLMVAKEARNVTMETE | – | – | – | – | – | – | did not influence | partially inhibited ATP hydrolysis by recombinant RIG-I
